Assay results as given in doi:10.1101/2023.01.01.522448v1 (biorxiv, 2023).

System: PrASNase (glutaminase-free recombinant L-asparaginase)
Test: Nesslerization
Type: biochemical, Metapseudomonas resinovorans
Details: pH 8.6, 37°C; 500 nM enzyme; 2-20 mM substrate

Km: 9.49 mM
SMILES: NC(=O)C[C@H](N)C(=O)O [L-asparagine]
